{"source": "patent US6737383B1", "about": "“Herbicidal oxadiazolidines” (priority 1999, dated 2004)", "key": {"Alexandergrass": {"system": "Alexandergrass", "experiment": "Test D Alexandergrass", "format": "in vivo, Brachiaria plantaginea", "conditions": "Preemergence, 0 to 100 scale", "outline": "(§1)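 Weed seeds planted in sandy loam; species kept apart in individual pots or compartments. Preemergence tests: treatment to soil surface within one day. Greenhouse growth, then visual injury scoring at 14–21 days (0–100).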"}, "large crabgrass": {"system": "large crabgrass", "experiment": "Test D large crabgrass", "format": "in vivo, Digitaria sanguinalis", "conditions": "Preemergence, 0 to 100 scale", "text": "Seeds, tubers, or plant parts of Alexandergrass (Brachiaria plantaginea), bermuda-grass (Cynodon dactylon), common pursiane (Portulaca oleracea), common ragweed (Ambrosia elatior), common groundsel (Senecio vulgaris), dallisgrass (Paspalum dilatatum), goosegrass (Eleusine indica), guineagrass (Panicum maximum), itchgrass (Rottboellia exaltata), Johnson grass (Sorghum halepense), large crabgrass (Digitaria sanguinalis), pitted morningglory (Ipomoea lacunosa), purple nutsedge (Cyperus rotundus), sandbur (Cenchrus echinatus), sourgrass (Trichachne insularis), Spanishneedles (Bidens bipinnata), surinam grass (Brachiaria decumbens) and tall mallow (Malva sylvestris) were planted into greenhouse pots of flats containing greenhouse planting medium. Plant species were grown in separate pots or individual compartments. Preemergence applications were made within one day of planting the seed or plant part.\nTest chemicals were formulated in a non-phytotoxic solvent mixture which included a surfactant and applied preemergence to the surface of the pot containing seeds in a sandy loam soil. Untreated control pots and treated pots were placed in the greenhouse for growth and visually evaluated for injury 14 to 21 days after herbicide application. Plant response ratings, summarized in Table C, are based on a 0 to 100 scale where 0 is no injury and 100 is complete control. A dash (−) response means no test result."}, "dallisgrass": {"system": "dallisgrass", "experiment": "Test D dallisgrass", "format": "in vivo, Paspalum dilatatum", "conditions": "Preemergence, 0 to 100 scale", "outline": "as §1"}, "itchgrass": {"system": "itchgrass", "experiment": "Test D itchgrass", "format": "in vivo, Rottboellia exaltata", "conditions": "Preemergence, 0 to 100 scale", "outline": "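Scoring used a 0–100 visual injury scale, with 0 meaning no effect and 100 complete control, assessed 14–21 days after application alongside untreated pots. Preemergence treatments went onto sandy loam surfaces of separately potted seeds within a day of sowing.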"}, "cocklebur": {"system": "cocklebur", "experiment": "Test C postemergence cocklebur", "format": "in vivo, Xanthium strumarium", "conditions": "0 to 100 scale, 0 no effect, 100 complete control", "protocol": "Compounds evaluated in this test were formulated in a non-phytotoxic solvent mixture which included a surfactant and applied to plants that were grown for various periods of time before treatment (postemergence application). A mixture of sandy loam soil and greenhouse potting mix in a 60:40 ratio was used for the postemergence test.\nPlantings of these crops and weed species were adjusted to produce plants of appropriate size for the postemergence test. All plant species were grown using normal greenhouse practices. Crop and weed species include arrowleaf sida (Sida rhombifolia), barnyardgrass (Echinochloa crus-galli), cocklebur (Xanthium strumarium), common ragweed (Ambrosia elatior), corn (Zea mays), cotton (Gossypium hirsutum), eastern black nightshade (Solanum ptycanthum), fall panicum (Panicum dichotomiflorum), field bindweed (Convolvulus arvensis), giant foxtail (Setaria faberii), hairy beggarticks (Bidens pilosa), ivyleaf morningglory (Ipomoea hederacea), johnsongrass (Sorghum halepense), ladysthumb smartweed (Polygonum persicaria), lambsquarters (Chenopodium album), large crabgrass (Digitaria sanguinalis), purple nutsedge (Cyperus rotundus), redroot pigweed (Amaranthus retroflexus), soybean (Glycine max), surinam grass (Brachiaria decumbens), velvetleaf (Abutilon theophrasti) and wild poinsettia (Euphorbia heterophylla).\nTreated plants and untreated controls were maintained in a greenhouse for approximately 14, to 21 days, after which all treated plants were compared to untreated controls and visually evaluated. Plant response ratings, summarized in Table C, were based upon a 0 to 100 scale where 0 was no effect and 100 was complete control. A dash response (−) means no test result."}, "[1]": {"conditions": "Rate 32 g/ha, 0 no injury, 100 complete control"}, "[2]": {"conditions": "Rate 64 g/ha, 0 no injury, 100 complete control"}, "[3]": {"conditions": "Rate 125 g/ha, 0 no injury, 100 complete control"}, "[4]": {"conditions": "Rate 16 g/ha, 0 no injury, 100 complete control"}}}
{"molecule": "Cc1cccc(C)c1-n1c(=O)on(C(=O)N(c2ccc(F)cc2F)C(C)C)c1=O", "note": "[Compound 28]", "values": [{"measurement": "Plant response rating, Alexandergrass", "setting": "Alexandergrass; [1]", "result": 0}, {"measurement": "Plant response rating, Alexandergrass", "setting": "Alexandergrass; [2]", "result": 0}, {"measurement": "Plant response rating, Alexandergrass", "setting": "Alexandergrass; [3]", "result": 60}, {"measurement": "Plant response rating, Alexandergrass", "setting": "Alexandergrass; Rate 250 g/ha", "result": 75}, {"measurement": "Plant response rating Large crabgrass", "setting": "large crabgrass; [1]", "result": 85}, {"measurement": "Plant response rating Large crabgrass", "setting": "large crabgrass; [2]", "result": 98}, {"measurement": "Plant response rating Large crabgrass", "setting": "large crabgrass; [3]", "result": 100}, {"measurement": "Plant response rating Large crabgrass", "setting": "large crabgrass; Rate 250 g/ha", "result": 100}, {"measurement": "Plant response rating, Dallisgrass", "setting": "dallisgrass; [1]", "result": 30}, {"measurement": "Plant response rating, Dallisgrass", "setting": "dallisgrass; [2]", "result": 75}, {"measurement": "Plant response rating, Dallisgrass", "setting": "dallisgrass; [3]", "result": 85}, {"measurement": "Plant response rating, Dallisgrass", "setting": "dallisgrass; Rate 250 g/ha", "result": 100}, {"measurement": "Plant response rating, Itchgrass", "setting": "itchgrass; [1]", "result": 0}, {"measurement": "Plant response rating, Itchgrass", "setting": "itchgrass; [2]", "result": 20}, {"measurement": "Plant response rating, Itchgrass", "setting": "itchgrass; [3]", "result": 40}, {"measurement": "Plant response rating, Itchgrass", "setting": "itchgrass; Rate 250 g/ha", "result": 40}]}
{"molecule": "CCn1c(=O)on(C(=O)N(c2ccc(F)cc2)C(C)C)c1=O", "note": "[Compound 107]", "values": [{"measurement": "Plant response rating, Alexandergrass", "setting": "Alexandergrass; [4]", "result": 0}, {"measurement": "Plant response rating, Alexandergrass", "setting": "Alexandergrass; [1]", "result": 90}, {"measurement": "Plant response rating, Alexandergrass", "setting": "Alexandergrass; [2]", "result": 100}, {"measurement": "Plant response rating, Alexandergrass", "setting": "Alexandergrass; [3]", "result": 100}, {"measurement": "Plant response rating, Alexandergrass", "setting": "Alexandergrass; Rate 250 g/ha", "result": 100}, {"measurement": "Plant response rating, Alexandergrass", "setting": "Alexandergrass; Rate 500 g/ha", "result": 100}, {"measurement": "Plant response rating Large crabgrass", "setting": "large crabgrass; [4]", "result": 85}, {"measurement": "Plant response rating Large crabgrass", "setting": "large crabgrass; [1]", "result": 98}, {"measurement": "Plant response rating Large crabgrass", "setting": "large crabgrass; [2]", "result": 100}, {"measurement": "Plant response rating Large crabgrass", "setting": "large crabgrass; [3]", "result": 100}, {"measurement": "Plant response rating Large crabgrass", "setting": "large crabgrass; Rate 250 g/ha", "result": 100}, {"measurement": "Plant response rating Large crabgrass", "setting": "large crabgrass; Rate 500 g/ha", "result": 100}, {"measurement": "Plant response rating, Dallisgrass", "setting": "dallisgrass; [4]", "result": 30}, {"measurement": "Plant response rating, Dallisgrass", "setting": "dallisgrass; [1]", "result": 85}, {"measurement": "Plant response rating, Dallisgrass", "setting": "dallisgrass; [2]", "result": 100}, {"measurement": "Plant response rating, Dallisgrass", "setting": "dallisgrass; [3]", "result": 100}, {"measurement": "Plant response rating, Dallisgrass", "setting": "dallisgrass; Rate 250 g/ha", "result": 100}, {"measurement": "Plant response rating, Dallisgrass", "setting": "dallisgrass; Rate 500 g/ha", "result": 100}, {"measurement": "Plant response rating, Itchgrass", "setting": "itchgrass; [4]", "result": 40}, {"measurement": "Plant response rating, Itchgrass", "setting": "itchgrass; [1]", "result": 75}, {"measurement": "Plant response rating, Itchgrass", "setting": "itchgrass; [2]", "result": 85}, {"measurement": "Plant response rating, Itchgrass", "setting": "itchgrass; [3]", "result": 98}, {"measurement": "Plant response rating, Itchgrass", "setting": "itchgrass; Rate 250 g/ha", "result": 100}, {"measurement": "Plant response rating, Itchgrass", "setting": "itchgrass; Rate 500 g/ha", "result": 100}, {"measurement": "Plant response rating, Cocklebur", "setting": "cocklebur; Rate 140 g/ha", "result": 0}, {"measurement": "Plant response rating, Cocklebur", "setting": "cocklebur; Rate 280 g/ha", "result": 50}]}
{"molecule": "CCn1c(=O)on(C(=O)N(c2ccc(F)cc2F)C(C)C)c1=O", "note": "[Compound 116]", "values": [{"measurement": "Plant response rating, Cocklebur", "setting": "cocklebur; Rate 140 g/ha", "result": 0}, {"measurement": "Plant response rating, Cocklebur", "setting": "cocklebur; Rate 560 g/ha", "result": 0}, {"measurement": "Plant response rating, Cocklebur", "setting": "cocklebur; Rate 1120 g/ha", "result": 50}]}
